The values that follow come from patent US9822131B2, “Certain chemical entities, compositions and methods” (Intellikine LLC, priority 2008, dated 2017).

This test concerns Balb/c splenic B cells. Kind of test: B cell activation and proliferation assay (Alamar Blue). The conditions noted are these: Mus musculus, read-out: B cell proliferation EC50. The format is cell-based.

Bounds are passed on as bounds.

For the compound `Cc1ccccc1-n1c(Cn2nc(-c3ccc4cc[nH]c4c3)c3c(N)ncnc32)cc2cccc(C)c2c1=O` [Compound 50], the EC50 is under 1 µM. As for `CC(=O)Nc1nc2ccc(-c3nn(Cc4cc5cccc(F)c5c(=O)n4C(C)C)c4ncnc(N)c34)cc2s1` [Compound 158], the figure is under 0.1 µM; as for `Cc1cccc2cc(Cn3nc(-c4cccc(O)c4)c4c(N)ncnc43)n(-c3ccccc3OCCN3CCOCC3)c(=O)c12` [Compound 109], under 0.1 µM.

Turning to `Cc1cccc2cc(Cn3nc(-c4cc(O)cc(F)c4)c4c(N)ncnc43)n(C3CCOCC3)c(=O)c12` [Compound 128], the EC50 was under 0.1 µM.

`Cc1cccc2cc(Cn3nc(-c4cccc(O)c4)c4c(N)ncnc43)n(-c3ccccc3C(C)C)c(=O)c12` [Compound 82]: the EC50 was under 0.1 µM.

For `Cc1cccc2cc(Cn3nc(-c4ccc(Cl)c(O)c4)c4c(N)ncnc43)n(C3CCCC3)c(=O)c12` [Compound 71], the EC50 is under 10 µM. Turning to `Cc1cccnc1-n1c(Cn2nc(-c3ccc(Cl)c(O)c3)c3c(N)ncnc32)cc2cccc(C)c2c1=O` [Compound 72], the EC50 is under 0.1 µM. As for `Cc1cccc2cc(Cn3nc(-c4cc(O)cc(F)c4)c4c(N)ncnc43)n(-c3ccccc3O)c(=O)c12` [Compound 90], the figure is under 0.1 µM. As for `Cc1cccc2cc(Cn3nc(-c4cccc(O)c4)c4c(N)ncnc43)n(C(C)C)c(=O)c12` [Compound 62], the figure is under 0.1 µM; as for `Cc1cccc2cc(Cn3nc(-c4cn[nH]c4)c4c(N)ncnc43)n(-c3ccccc3F)c(=O)c12` [Compound 161], under 1 µM. In the case of `Cc1cccc2cc(Cn3nc(-c4ccc(F)c(O)c4)c4c(N)ncnc43)n(C(C)C)c(=O)c12` [Compound 67], the EC50 is under 0.1 µM. In the case of `Cc1cccc2cc(Cn3nc(-c4ccc(O)cc4)c4c(N)ncnc43)n(-c3ccccc3F)c(=O)c12` [Compound 46] it was under 1 µM; in that of `CNC(=O)Nc1nc2ccc(-c3nn(Cc4cc5cccc(C)c5c(=O)n4-c4ccccc4C)c4ncnc(N)c34)cc2s1` [Compound 148], under 0.1 µM; in that of `CCc1ccccc1-n1c(Cn2nc(-c3cc(O)cc(F)c3)c3c(N)ncnc32)cc2cccc(C)c2c1=O` [Compound 89], under 0.1 µM. In the case of `CC(C)n1c(Cn2nc(-c3cccc(O)c3)c3c(N)ncnc32)cc2cccc(F)c2c1=O` [Compound 133] it was under 1 µM. In the case of `Cc1cccc2cc(Cn3nc(-c4cc(O)cc(F)c4)c4c(N)ncnc43)n(C3CCCCC3)c(=O)c12` [Compound 110] it was under 1 µM. `Cc1ccccc1-n1c(Cn2nc(-c3ccc(O)c(F)c3)c3c(N)ncnc32)cc2cccc(C)c2c1=O` [Compound 30]: the EC50 was under 1 µM. As for `Cc1ccccc1-n1c(Cn2nc(-c3ccc4nc(N)ncc4c3)c3c(N)ncnc32)cc2cccc(C)c2c1=O` [Compound 150], the figure is under 0.1 µM; as for `Nc1ncnc2c1c(-c1cc(O)cc(F)c1)nn2Cc1cc2cccc(Cl)c2c(=O)n1C1CC1` [Compound 142], under 0.1 µM; as for `Cc1ccccc1-n1c(Cn2nc(C#CCO)c3c(N)ncnc32)cc2cccc(C)c2c1=O` [Compound 11], under 1 µM.

On to `Cc1cccc2cc(Cn3nc(Cl)c4c(N)ncnc43)n(-c3ccccc3F)c(=O)c12` [Compound 34], for which the EC50 is under 1 µM. As for `C=Cc1nn(Cc2cc3cccc(C)c3c(=O)n2-c2ccccc2C)c2ncnc(N)c12` [Compound 180], the figure is under 0.1 µM; as for `COc1cc(-c2nn(Cc3cc4cccc(C)c4c(=O)n3-c3ccccc3F)c3ncnc(N)c23)ccc1Cl` [Compound 22], under 10 µM; as for `Nc1ncnc2c1c(I)nn2Cc1cc2cccc(Cl)c2c(=O)n1C1CC1` [Compound 139], under 0.1 µM. As for `Cc1ccncc1-n1c(Cn2nc(I)c3c(N)ncnc32)cc2cccc(C)c2c1=O` [Compound 78], the figure is under 1 µM; as for `Cc1cccc2cc(Cn3nc(-c4cccc(O)c4)c4c(N)ncnc43)n(C)c(=O)c12` [Compound 124], under 1 µM.
